According to article PMC11945657, “Microwave-Assisted Synthesis of Morpholine-Based Chalcones as Reversible MAO-A Inhibitors in the Management of Mental Depression” (Pharmaceuticals, 2025):
Where “and” joins values, the source holds several entries; their conditions need not be identical. Equal entries are not always repeated. Where two headings read alike, the source gives them in different places.

Tests used:
hMAO-B = target: T1, hMAO-B (Homo sapiens, UniProt P27338); assay: MAO inhibition assay (Amplex Red, fluorimetric), MAO-B
T1 sequence (P27338 1-520): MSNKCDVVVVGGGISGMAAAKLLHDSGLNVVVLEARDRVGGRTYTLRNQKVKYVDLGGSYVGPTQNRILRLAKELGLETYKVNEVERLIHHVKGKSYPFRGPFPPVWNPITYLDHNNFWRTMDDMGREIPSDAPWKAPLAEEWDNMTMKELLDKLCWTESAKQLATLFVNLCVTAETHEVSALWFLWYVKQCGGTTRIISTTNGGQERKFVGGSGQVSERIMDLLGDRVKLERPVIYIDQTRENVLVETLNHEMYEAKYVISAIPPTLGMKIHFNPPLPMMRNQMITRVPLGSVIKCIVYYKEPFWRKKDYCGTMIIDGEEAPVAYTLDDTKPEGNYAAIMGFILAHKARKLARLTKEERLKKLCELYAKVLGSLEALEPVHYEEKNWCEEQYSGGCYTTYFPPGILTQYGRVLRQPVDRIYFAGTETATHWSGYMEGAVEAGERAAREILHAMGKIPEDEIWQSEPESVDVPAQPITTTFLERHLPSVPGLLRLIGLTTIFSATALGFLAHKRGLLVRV

hMAO-A = target: T2, hMAO-A (Homo sapiens, UniProt P21397); assay: MAO inhibition assay (Amplex Red, fluorimetric), MAO-A
T2 sequence (P21397 1-527): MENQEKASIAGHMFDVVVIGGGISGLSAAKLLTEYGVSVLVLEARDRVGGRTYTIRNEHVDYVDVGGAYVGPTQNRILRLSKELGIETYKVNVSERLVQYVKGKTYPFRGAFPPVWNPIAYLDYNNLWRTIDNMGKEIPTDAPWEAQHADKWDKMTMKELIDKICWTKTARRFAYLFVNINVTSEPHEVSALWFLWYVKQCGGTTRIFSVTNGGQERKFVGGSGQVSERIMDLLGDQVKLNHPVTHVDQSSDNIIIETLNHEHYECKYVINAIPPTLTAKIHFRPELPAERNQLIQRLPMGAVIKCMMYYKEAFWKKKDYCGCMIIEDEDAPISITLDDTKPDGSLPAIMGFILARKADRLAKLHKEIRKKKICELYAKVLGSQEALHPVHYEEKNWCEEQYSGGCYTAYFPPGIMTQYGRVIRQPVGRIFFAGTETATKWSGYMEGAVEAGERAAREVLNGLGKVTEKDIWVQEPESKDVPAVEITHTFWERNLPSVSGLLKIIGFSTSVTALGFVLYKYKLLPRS

[1] = DPPH free radical scavenging antioxidant assay
Description: H2O2 produced during metabolic events in the brain may be crucial for signaling and metabolic functions. The compounds were screened to check their potential to inhibit ROS through the DPPH assay. […] However, further studies are required to confirm this effect.
The DPPH approach, which gauges the free radical scavenging activity, was used to evaluate the antioxidant properties of the compounds. The test was performed according to the literature method. The stock solution of DPPH (0.5 mM) was prepared, and methanol was used to create each dilution. The different concentrations (10, 25, 50, 75, and 100 μM) of the test compounds (C1–C15) were prepared and compared with the standard ascorbic acid. The percentage antioxidant activity of the compounds was calculated using the following formula: % Antioxidant activity = [(Aabsorbance − Atest)/Aabsorbance] × 100.

[2] = read-out: Percentage Inhibition at 20 μM MAO-B
[3] = read-out: IC50 Values MAO-A, class symbol, IC50 not calculated
[4] = read-out: Percentage Inhibition at 20 μM MAO-A, 20 μM
[5] = read-out: Percentage Inhibition at 20 μM MAO-A

Compound	inhibition at 20 µM (hMAO-B; read-out: IC50 Values MAO-B) [%]	inhibition at 20 µM (hMAO-B; [2]) [%]	inhibition at 20 µM (hMAO-A; [3]) [%]	inhibition at 20 µM (hMAO-A; [4]) [%]	% Antioxidant Activity ([1]; 10 µM) [%]	% Antioxidant Activity ([1]; 25 µM) [%]	% Antioxidant Activity ([1]; 50 µM) [%]	% Antioxidant Activity ([1]; 75 µM)	% Antioxidant Activity ([1]; 100 µM)	inhibition at 20 µM (hMAO-A; read-out: IC50 Values MAO-A) [%]	inhibition at 20 µM (hMAO-A; [5]) [%]	% Antioxidant Activity ([1]; 100 µM, listed as ascorbic acid) [%]	IC50 (hMAO-A) [µM]	Percentage Inhibition at 20 μM MAO-A (hMAO-A; 20 μM) [%]
COc1ccccc1/C=C/C(=O)c1ccc(N2CCOCC2)cc1 [Compound C11, (E)-3-(2-Methoxyphenyl)-1-(4-morpholinophenyl)prop-2-en-1-one]	< 50	18.6	< 50	21.1	13.89	16.00	40.26	27.09%	36.45%					
Cc1ccccc1/C=C/C(=O)c1ccc(N2CCOCC2)cc1 [Compound C15, (E)-1-(4-Morpholinophenyl)-3-(o-tolyl)prop-2-en-1-one]	< 50	25.7		6.17	6.51	30.71	41.06	32.50%	29.17%					
O=C(/C=C/c1ccc(Br)cc1)c1ccc(N2CCOCC2)cc1 [Compound C1, (E)-3-(4-Bromophenyl)-1-(4-morpholinophenyl)prop-2-en-1-one]	< 50	6.59			9.24	21.80	35.78	50% and 53.13%	50% and 54.82%	< 50	13.6			
Cc1cccc(/C=C/C(=O)c2ccc(N3CCOCC3)cc2)c1 [Compound C8, (E)-1-(4-Morpholinophenyl)-3-(m-tolyl)prop-2-en-1-one]	< 50	6.32	< 50	3.11	16.56	31.47	36.01	49.24%	66.42%					
O=C(/C=C/c1ccc(Cl)c(Cl)c1)c1ccc(N2CCOCC2)cc1 [Compound C2, (E)-3-(3,4-Dichlorophenyl)-1-(4-morpholinophenyl)prop-2-en-1-one]	< 50	4.74	< 50	19.4	6.63	25.78	37.18	50% and 50.91%	50% and 53.12%					
CCc1ccc(/C=C/C(=O)c2ccc(N3CCOCC3)cc2)cc1 [Compound C13, (E)-3-(4-Ethylphenyl)-1-(4-morpholinophenyl)prop-2-en-1-one]	< 50	17.5			2.54	15.55	41.40	22.18%	66.87%		7.25			
O=C(/C=C/c1ccc(Br)c(F)c1)c1ccc(N2CCOCC2)cc1 [Compound C5, (E)-3-(4-Bromo-3-fluorophenyl)-1-(4-morpholinophenyl)prop-2-en-1-one]	< 50	6.54	< 50	36.8	19.11	23.41	38.15	49.88%	50% and 50.95%					
O=C1O[C@H]([C@@H](O)CO)C(O)=C1O [Ascorbic acid, ascorbic acid, reference compound]					8.03	20.27	40.23	46.33%	58.53%			50		
O=C(/C=C/c1ccc(Cl)cc1)c1ccc(N2CCOCC2)cc1 [Compound C7, (E)-3-(4-Chlorophenyl)-1-(4-morpholinophenyl)prop-2-en-1-one]	< 50	7.43			13.81	15.62	32.06	50% and 52.12%	50% and 53.37%	< 50	21.4			
Cc1ccc(/C=C/C(=O)c2ccc(N3CCOCC3)cc2)cc1 [Compound C9, (E)-1-(4-Morpholinophenyl)-3-(p-tolyl)prop-2-en-1-one]	< 50	6.77			8.65	23.43	35.75	39.19%	44.66%	< 50	4.95			
C#CCN(C)CCCOc1ccc(Cl)cc1Cl [Clorgyline, clorgyline, reference compound]											95			
O=C(/C=C/c1ccccc1Cl)c1ccc(N2CCOCC2)cc1 [Compound C12, (E)-3-(2-Chlorophenyl)-1-(4-morpholinophenyl)prop-2-en-1-one]	< 50	23.9		67.7	3.03	19.54	40.88	44.56%	35.95%				9.35 ± 0.11	67.76
C#CCN(C)Cc1ccccc1 [Pargyline, pargyline, reference compound]		99									< 50			
COc1ccc(/C=C/C(=O)c2ccc(N3CCOCC3)cc2)cc1OC [Compound C4, (E)-3-(3,4-Dimethoxyphenyl)-1-(4-morpholinophenyl)prop-2-en-1-one]	< 50	5.56	< 50	15.8	16.37	32.47	41.07	33.69%	50% and 52.62%					
